Experimental findings from paper PMC12133982, “Predominant T-cell epitopes of SARS-CoV-2 restricted by multiple prevalent HLA-B and HLA-C allotypes in Northeast Asia” (Frontiers in Immunology, 2025) are described below.

One assay concerns the target HLA-B1502 (Homo sapiens, UniProt P01889, A329T/A93T/A95T/C349S/D201E/D98Y/E187L/E204Q/E69M/E70A/H137Y/K202T/L119I/Q94N/R155S/R180L/S121R/S35A/S48A/T118I/V306I/V36M/Y140S/Y91S). In words: Competitive peptide binding assay, CIR-B1502. The following applies: HMy2.CIR-B1502 cells, reference Cy5-[…], class from inhibition at 5 and 15 μM, flow cytometry MFI; read-out: Binding affinity with HLA-B1502. On the procedure:
(§1) Then, competitive peptide binding assays were performed.
Background: A flow cytometer gives signals particle by particle.

In another assay the target is HLA-B1302 (Homo sapiens, UniProt P01889, A65T/A93T/A95T/D138N/D201E/D98Y/E176V/E204Q/E69M/E70A/G107R/K202T/L105A/L119W/N104T/N87E/Q94N/R106L/R155S/R169L/R180L/S101N/S121T/S35A/S48T/V127L/V36M/Y140L/Y91S). In words: Competitive peptide binding assay, CIR-B1302. The following applies: HMy2.CIR-B1302 cells, reference Cy5-MMWYWGPSL, class from inhibition at 5 and 15 μM, flow cytometry MFI; read-out: Binding affinity with HLA-B1302. On the procedure: as §1

For the next assay, the target named is HLA-B1501 (Homo sapiens, UniProt P01889, A329T/A93T/A95T/C349S/D201E/D98Y/E187L/E204Q/E69M/E70A/K202T/N87E/Q94N/R155S/R180W/S121R/S35A/S48A/V306I/V36M/Y140S/Y91S). In words: Competitive peptide binding assay, CIR-B1501. The note with it: HMy2.CIR-B1501 cells, reference Cy5-[…], class from inhibition at 5 and 15 μM, flow cytometry MFI; read-out: Binding affinity with HLA-B1501. As for the experimental part:
as §1

In the next assay the target is HLA-B3501 (Homo sapiens, UniProt P01889, A329T/A93T/A95T/C349S/D201E/D98Y/E176V/E187L/E204Q/E69T/I218V/K202T/L119I/Q94N/R155S/R180L/S121R/S35A/S48A/T118I/V127L/V306I/V36M/Y140S/Y91F). In words: Competitive peptide binding assay, CIR-B3501. The note with it: HMy2.CIR-B3501 cells, reference Cy5-[…], class from inhibition at 5 and 15 μM, flow cytometry MFI; read-out: Binding affinity with HLA-B3501. On the procedure:
as §1

The next assay has as its target HLA-C0602 (Homo sapiens, UniProt P10321, A176E/A330V/C350S/L171W/L180W/L218V/M285V/M309V/M331V/N104K/P208H/Q277E/Q291P/R121W/S101N/S123Y/S297R/T329A/T363A/V319A/V328M). In words: Competitive peptide binding assay, CIR-C0602.
The next assay addresses HLA-C0702 (Homo sapiens, UniProt P10321). In words: Competitive peptide binding assay, CIR-C0702.
The next assay deals with HLA-B4601 (Homo sapiens, UniProt P01889, A329T/A93R/C349S/D201E/E100V/E187L/E204Q/E69M/E70A/I90K/K202T/N87E/R155S/R180W/S121R/S35A/S48A/V306I/V36M/Y140S). In words: Competitive peptide binding assay, CIR-B4601. The note with it: for IC50: HMy2.CIR-B4601 cells, reference Cy5-[…], class from inhibition at 5 and 15 μM, flow cytometry MFI, read-out: Binding affinity with HLA-B4601; for inhibition at 5 µM: read-out: Inhibition % of Cy5-reference peptide binding, CIR-B4601, 5μM peptide; for inhibition at 15 µM: read-out: Inhibition % of Cy5-reference peptide binding, CIR-B4601, 15μM peptide. On the procedure:
as §1

The target in a further assay is HLA-B5801 (Homo sapiens, UniProt P01889, A329T/C349S/D201E/D98Y/E176V/E187L/E204Q/E69T/G107R/I218V/I90N/K202T/L105A/L119I/N104I/N87E/Q89R/Q94S/R106L/R155S/R180L/R86G/S101N/S121R/S35A/S48A/T118I/V127L/V306I/V36M/Y140S/Y91M). In words: Competitive peptide binding assay, CIR-B5801. The note with it: HMy2.CIR-B5801 cells, reference Cy5-[…], class from inhibition at 5 and 15 μM, flow cytometry MFI; read-out: Binding affinity with HLA-B5801. On the procedure:
as §1

For another assay, the target named is HLA-B1301 (Homo sapiens, UniProt P01889, A65T/A93T/A95T/D138N/D201E/D98Y/E176V/E204Q/E69M/E70A/G107R/K202T/L105A/L119I/N104T/N87E/Q94N/R106L/R155S/R169L/R180L/S101N/S121R/S35A/S48T/T118I/V127L/V36M/Y140L/Y91S). In words: Competitive peptide binding assay, CIR-B1301. The following applies: HMy2.CIR-B1301 cells, reference Cy5-[…], class from inhibition at 5 and 15 μM, flow cytometry MFI; read-out: Binding affinity with HLA-B1301. As for the experimental part:
as §1

Peptide text beside a SMILES is read from it. Bounds are passed on as bounds.

On to `CC(C)[C@H](NC(=O)[C@@H](N)Cc1ccccc1)C(=O)N[C@@H](CO)C(=O)N[C@@H](CC(N)=O)C(=O)NCC(=O)N[C@H](C(=O)N[C@@H](Cc1c[nH]cn1)C(=O)N[C@@H](Cc1c[nH]c2ccccc12)C(=O)N[C@@H](Cc1ccccc1)C(=O)O)[C@@H](C)O` [Epitope Y250] (H-FVSNGTHWF-OH; N-terminus and C-terminus assumed), for which the IC50 on HLA-B1502, at HLA-B1302, on HLA-B1501 and at HLA-B3501 was above 15 µM each time.

`CC[C@H](C)[C@H](NC(=O)[C@@H]1CCCN1C(=O)[C@@H](NC(=O)[C@H](Cc1c[nH]cn1)NC(=O)[C@H](CCCCN)NC(=O)[C@H](CO)NC(=O)[C@@H](N)Cc1ccc(O)cc1)[C@@H](C)O)C(=O)N[C@@H](CC(N)=O)C(=O)N[C@@H](CC(C)C)C(=O)O` [Epitope M127] (H-YSKHTPINL-OH; N-terminus and C-terminus assumed): the IC50 on HLA-C0602 and on HLA-C0702 was above 15 µM each time.

Broadly, the inhibition is the percentage by which the read-out fell short of the control. In the case of `C[C@H](NC(=O)[C@H](CO)NC(=O)[C@H](CO)NC(=O)[C@@H](N)Cc1ccc(O)cc1)C(=O)N[C@@H](CC(N)=O)C(=O)N[C@@H](CC(N)=O)C(=O)N[C@@H](CS)C(=O)N[C@H](C(=O)N[C@@H](Cc1ccccc1)C(=O)O)[C@@H](C)O` [Epitope Y247] (H-YSSANNCTF-OH; N-terminus and C-terminus assumed), the IC50 is 5 to 15 µM at HLA-B4601; below 5 µM on HLA-B5801; above 15 µM at HLA-B1502; above 15 µM on HLA-B1301; 5 to 15 µM at HLA-B1302; above 15 µM on HLA-B1501. In addition, the IC50 on HLA-B3501 was above 15 µM. For the same compound, the inhibition at 5 µM on HLA-B4601 amounted to 44.6%. Besides, the inhibition at 15 µM on HLA-B4601 was 86.4%.

On to `CC(C)[C@H](NC(=O)CNC(=O)[C@H](Cc1c[nH]cn1)NC(=O)[C@@H]1CCCN1C(=O)[C@H](C)NC(=O)[C@H](CO)NC(=O)[C@H](CCC(N)=O)NC(=O)[C@@H]1CCCN1C(=O)[C@@H](N)Cc1ccccc1)C(=O)O` [Epitope Y281] (H-FPQSAPHGV-OH; N-terminus and C-terminus assumed), for which the IC50 on HLA-B1502 was above 15 µM; at HLA-B1301, above 15 µM; at HLA-B1302, above 15 µM; on HLA-B1501, 5 to 15 µM.

With `CC[C@H](C)[C@H](NC(=O)[C@H](CO)NC(=O)[C@H](CCC(N)=O)NC(=O)[C@H](CO)NC(=O)[C@H](C)NC(=O)[C@@H](N)C(C)C)C(=O)N[C@H](C(=O)N[C@@H](C)C(=O)N[C@@H](Cc1ccc(O)cc1)C(=O)O)[C@@H](C)CC` [Epitope Y151] (H-VASQSIIAY-OH; N-terminus and C-terminus assumed), the IC50 on HLA-B5801 is above 15 µM; on HLA-B1302 it was below 5 µM; on HLA-B1501, above 15 µM; on HLA-B3501 it was below 5 µM.

`CC[C@H](C)[C@H](NC(=O)[C@H](CC(C)C)NC(=O)[C@@H](N)CCC(=O)O)C(=O)N[C@@H](CCCNC(=N)N)C(=O)N[C@@H](CCC(N)=O)C(=O)NCC(=O)N[C@H](C(=O)N[C@@H](CC(=O)O)C(=O)N[C@@H](Cc1ccc(O)cc1)C(=O)O)[C@@H](C)O` [Epitope Y162] (H-ELIRQGTDY-OH; N-terminus and C-terminus assumed): the IC50 was below 5 µM at HLA-B4601; 5 to 15 µM on HLA-B5801; 5 to 15 µM at HLA-B1502; above 15 µM on HLA-B1302; above 15 µM on HLA-B1501; above 15 µM on HLA-B3501.

With `C[C@@H](O)[C@H](NC(=O)CNC(=O)[C@H](CCC(N)=O)NC(=O)[C@@H](N)CCCNC(=N)N)C(=O)N[C@@H](CC(=O)O)C(=O)N[C@@H](Cc1ccc(O)cc1)C(=O)N[C@@H](CCCCN)C(=O)N[C@@H](Cc1c[nH]cn1)C(=O)N[C@@H](Cc1c[nH]c2ccccc12)C(=O)O` [Epitope Y222] (H-RQGTDYKHW-OH; N-terminus and C-terminus assumed), the IC50 is above 15 µM at HLA-B1302 and 5 to 15 µM at HLA-B1501.

Turning to `CSCC[C@H](NC(=O)[C@H](CO)NC(=O)[C@H](CCCNC(=N)N)NC(=O)[C@@H](NC(=O)[C@H](CCCNC(=N)N)NC(=O)[C@H](C)NC(=O)[C@@H](N)Cc1ccccc1)[C@@H](C)O)C(=O)N[C@@H](Cc1c[nH]c2ccccc12)C(=O)N[C@@H](CO)C(=O)N[C@@H](Cc1ccccc1)C(=O)O` [Epitope Y47] (H-FARTRSMWSF-OH; N-terminus and C-terminus assumed), the IC50 was above 15 µM at HLA-B4601; above 15 µM at HLA-B5801; below 5 µM at HLA-B1502; above 15 µM on HLA-B1302; below 5 µM on HLA-B3501.

For the compound `C[C@H](NC(=O)[C@H](Cc1ccc(O)cc1)NC(=O)[C@H](C)NC(=O)[C@@H](N)Cc1ccccc1)C(=O)N[C@@H](CC(N)=O)C(=O)N[C@@H](CCCNC(=N)N)C(=O)N[C@@H](CC(N)=O)C(=O)N[C@@H](CCCNC(=N)N)C(=O)N[C@@H](Cc1ccccc1)C(=O)O` [Epitope Y49] (H-FAYANRNRF-OH; N-terminus and C-terminus assumed), the IC50 is 5 to 15 µM on HLA-B5801, above 15 µM at HLA-B1302, above 15 µM on HLA-B1501 and below 5 µM on HLA-B3501.

In the case of `CC[C@H](C)[C@H](NC(=O)[C@@H](NC(=O)[C@H](CCC(=O)O)NC(=O)[C@H](CCC(=O)O)NC(=O)[C@@H](N)Cc1c[nH]cn1)[C@@H](C)O)C(=O)N[C@@H](Cc1ccc(O)cc1)C(=O)N[C@@H](CC(N)=O)C(=O)N[C@@H](CC(C)C)C(=O)N[C@@H](CC(C)C)C(=O)O` [Epitope Y199] (H-HEETIYNLL-OH; N-terminus and C-terminus assumed), the IC50 on HLA-B4601 was above 15 µM; at HLA-B5801, 5 to 15 µM; at HLA-B1302, 5 to 15 µM; at HLA-B3501, below 5 µM. Moreover, the inhibition at 5 µM at HLA-B4601 worked out at 24.9%. Also, the inhibition at 15 µM on HLA-B4601 was determined as 44.1%.

In the case of `CC(C)C[C@H](N)C(=O)N1CCC[C@H]1C(=O)N[C@@H](CC(N)=O)C(=O)N[C@@H](CC(N)=O)C(=O)N[C@H](C(=O)N[C@@H](C)C(=O)N[C@@H](CO)C(=O)N[C@@H](Cc1c[nH]c2ccccc12)C(=O)N[C@@H](Cc1ccccc1)C(=O)O)[C@@H](C)O` [Epitope Y17] (H-LPNNTASWF-OH; N-terminus and C-terminus assumed), the IC50 is above 15 µM on HLA-B5801, above 15 µM at HLA-B1302, above 15 µM on HLA-B1501 and below 5 µM on HLA-B3501.

As to `CC(C)C[C@H](NC(=O)[C@H](CC(=O)O)NC(=O)[C@H](CCC(N)=O)NC(=O)[C@@H](NC(=O)[C@@H](N)CO)[C@@H](C)O)C(=O)N[C@@H](Cc1ccccc1)C(=O)N[C@@H](CC(C)C)C(=O)N1CCC[C@H]1C(=O)N[C@@H](Cc1ccccc1)C(=O)O` [Epitope Y249] (H-STQDLFLPF-OH; N-terminus and C-terminus assumed), the IC50 is above 15 µM on HLA-B1301, above 15 µM on HLA-B1302 and 5 to 15 µM on HLA-B1501.
